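Growth conditions: 96-well plates. Treatment: test compound, 48 hours, 5 concentrations. Analysis: linear interpolation between bracketing concentrations; unreached endpoints set to highest concentration. TGI is the concentration that stops growth completely.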
Tests used:
Experiment in all cases: NCI tumour cell line growth inhibition, 48 h
[1] = tested on: 786-0 renal
[2] = tested on: A549 NSCLC
[3] = tested on: ACHN renal
[4] = tested on: BT-549 breast
[5] = tested on: CAKI-1 renal
[6] = tested on: CCRF-CEM leukemia
[7] = tested on: DU-145 prostate
[8] = tested on: EKVX NSCLC
[9] = tested on: HCC-2998 colon
[10] = tested on: HCT-116 colon
[11] = tested on: HCT-15 colon
[12] = tested on: HL-60(TB) leukemia
[13] = tested on: HOP-62 NSCLC
[14] = tested on: HOP-92 NSCLC
[15] = tested on: HS 578T breast
[16] = tested on: HT29 colon
[17] = tested on: IGROV1 ovarian
[18] = tested on: K-562 leukemia
[19] = tested on: KM12 colon
[20] = tested on: LOX IMVI melanoma
[21] = tested on: M14 melanoma
[22] = tested on: MALME-3M melanoma
[23] = tested on: MCF7 breast
[24] = tested on: MDA-MB-231 breast
[25] = tested on: MDA-MB-435
[26] = tested on: MDA-N
[27] = tested on: MOLT-4 leukemia
[28] = tested on: NCI-H226 lung
[29] = tested on: NCI-H23 lung
[30] = tested on: NCI-H522 lung
[31] = tested on: OVCAR-3 ovarian
[32] = tested on: OVCAR-5 ovarian
[33] = tested on: OVCAR-8 ovarian
[34] = tested on: PC-3 prostate
[35] = tested on: RPMI-8226 leukemia
[36] = tested on: SF-268 CNS
[37] = tested on: SF-295 CNS
[38] = tested on: SF-539 CNS
[39] = tested on: SK-MEL-28 melanoma
[40] = tested on: SK-MEL-5 melanoma
[41] = tested on: SNB-19 CNS
[42] = tested on: SR leukemia
[43] = tested on: SW-620 colon
[44] = tested on: T-47D breast
[45] = tested on: TK-10 renal
[46] = tested on: U251 CNS
[47] = tested on: UACC-257 melanoma
[48] = tested on: UO-31 renal
[49] = tested on: A498 renal
[50] = tested on: COLO 205 colon
[51] = tested on: NCI-H460 lung
[52] = tested on: NCI/ADR-RES ovarian
[53] = tested on: OVCAR-4 ovarian
[54] = tested on: RXF 393 renal
[55] = tested on: SK-MEL-2 melanoma
[56] = tested on: SK-OV-3 ovarian
[57] = tested on: SN12C renal
[58] = tested on: SNB-75 CNS
[59] = tested on: UACC-62 melanoma

CC(C)(C)OC(=O)C1C(=O)NC(=O)CC1C(COCc1ccccc1)OCc1ccccc1 (configuration not stated) showed a TGI [1] of 45.3 µM, a TGI [2] of over 100 µM and a TGI [3] of 50.7 µM. For the same molecule, the TGI [4] was 55.6 µM, the TGI [5] was over 100 µM and the TGI [6] was 77.3 µM. For the same molecule, the TGI [7] was over 100 µM, the TGI [8] was 55.5 µM and the TGI [9] was 47.7 µM. For the same molecule, the TGI [10] was 32.7 µM, the TGI [11] was 54.5 µM and the TGI [12] was 60.6 µM. It also gave a TGI [13] of 26.6 µM, a TGI [14] of 30.5 µM and a TGI [15] of 49.5 µM. For the same molecule, the TGI [16] was 37.1 µM, the TGI [17] was 52.5 µM and the TGI [18] was over 100 µM. The TGI [19] was 36.7 µM, the TGI [20] was 34.7 µM and the TGI [21] was 34.8 µM. The TGI [22] was 35.5 µM, the TGI [23] was 57.7 µM and the TGI [24] was 36.4 µM. It also gave a TGI [25] of 49.7 µM, a TGI [26] of 36.2 µM and a TGI [27] of 52.9 µM. For the same molecule, the TGI [28] was 39.4 µM, the TGI [29] was 92.6 µM and the TGI [30] was 35.8 µM. The TGI [31] was 46.3 µM, the TGI [32] was 41.1 µM and the TGI [33] was over 100 µM. For the same molecule, the TGI [34] was 27.2 µM, the TGI [35] was 62.6 µM and the TGI [36] was 59.3 µM. The TGI [37] was 43.3 µM, the TGI [38] was 40.6 µM and the TGI [39] was 32.1 µM. It also gave a TGI [40] of 31.1 µM, a TGI [41] of over 100 µM and a TGI [42] of 64.1 µM. For the same molecule, the TGI [43] was 65.1 µM, the TGI [44] was 38.7 µM and the TGI [45] was over 100 µM. It also gave a TGI [46] of 40.2 µM, a TGI [47] of 41.4 µM and a TGI [48] of 55.8 µM.
O=C(O)C12CC3(C(=O)O)CC(C(=O)O)(CC(C(=O)O)(C1)C3=O)C2=O gave a TGI [1] of over 100 µM, a TGI [49] of over 100 µM and a TGI [2] of over 100 µM. The TGI [3] was over 100 µM, the TGI [4] was over 100 µM and the TGI [5] was over 100 µM. For the same molecule, the TGI [6] was over 100 µM, the TGI [50] was over 100 µM and the TGI [7] was over 100 µM. For the same molecule, the TGI [8] was over 100 µM, the TGI [10] was over 100 µM and the TGI [11] was over 100 µM. The TGI [13] was over 100 µM, the TGI [14] was over 100 µM and the TGI [15] was over 100 µM. For the same molecule, the TGI [16] was over 100 µM, the TGI [17] was over 100 µM and the TGI [18] was over 100 µM. For the same molecule, the TGI [19] was over 100 µM, the TGI [20] was over 100 µM and the TGI [21] was over 100 µM. The TGI [22] was over 100 µM, the TGI [23] was over 100 µM and the TGI [24] was over 100 µM. It also gave a TGI [25] of over 100 µM, a TGI [26] of over 100 µM and a TGI [27] of over 100 µM. For the same molecule, the TGI [28] was over 100 µM, the TGI [29] was over 100 µM and the TGI [51] was over 100 µM. The TGI [30] was over 100 µM, the TGI [52] was over 100 µM and the TGI [31] was over 100 µM. For the same molecule, the TGI [53] was over 100 µM, the TGI [32] was over 100 µM and the TGI [33] was over 100 µM. It also gave a TGI [34] of over 100 µM, a TGI [35] of over 100 µM and a TGI [54] of over 100 µM. It also gave a TGI [36] of over 100 µM, a TGI [37] of over 100 µM and a TGI [55] of over 100 µM. The TGI [39] was over 100 µM, the TGI [40] was over 100 µM and the TGI [56] was over 100 µM. It also gave a TGI [57] of over 100 µM, a TGI [41] of over 100 µM and a TGI [58] of over 100 µM. For the same molecule, the TGI [42] was over 100 µM, the TGI [43] was over 100 µM and the TGI [44] was over 100 µM. The TGI [45] was over 100 µM, the TGI [46] was over 100 µM and the TGI [47] was over 100 µM. The TGI [59] was over 100 µM and the TGI [48] was over 100 µM.
For CC(C)(C)c1ccc(OCC(=O)O)c(Cl)c1, the TGI [1] was over 100 µM, the TGI [49] was over 100 µM and the TGI [2] was over 100 µM. The TGI [3] was over 100 µM, the TGI [4] was over 100 µM and the TGI [5] was over 100 µM. It also gave a TGI [6] of over 100 µM, a TGI [50] of over 100 µM and a TGI [7] of over 100 µM. The TGI [8] was over 100 µM, the TGI [9] was over 100 µM and the TGI [10] was over 100 µM. It also gave a TGI [11] of over 100 µM, a TGI [12] of over 100 µM and a TGI [13] of over 100 µM. The TGI [14] was over 100 µM, the TGI [15] was over 100 µM and the TGI [16] was over 100 µM. The TGI [17] was over 100 µM, the TGI [18] was over 100 µM and the TGI [19] was over 100 µM. For the same molecule, the TGI [20] was over 100 µM, the TGI [21] was over 100 µM and the TGI [22] was over 100 µM. The TGI [23] was over 100 µM, the TGI [24] was over 100 µM and the TGI [25] was over 100 µM. For the same molecule, the TGI [26] was over 100 µM, the TGI [27] was over 100 µM and the TGI [28] was over 100 µM. For the same molecule, the TGI [29] was over 100 µM, the TGI [51] was over 100 µM and the TGI [30] was over 100 µM. For the same molecule, the TGI [52] was over 100 µM, the TGI [31] was over 100 µM and the TGI [53] was over 100 µM. It also gave a TGI [32] of over 100 µM, a TGI [33] of over 100 µM and a TGI [34] of over 100 µM. The TGI [35] was over 100 µM, the TGI [54] was over 100 µM and the TGI [36] was over 100 µM. The TGI [37] was over 100 µM, the TGI [38] was over 100 µM and the TGI [55] was over 100 µM. For the same molecule, the TGI [39] was over 100 µM, the TGI [40] was over 100 µM and the TGI [56] was over 100 µM. It also gave a TGI [57] of over 100 µM, a TGI [41] of over 100 µM and a TGI [58] of over 100 µM. For the same molecule, the TGI [43] was over 100 µM, the TGI [44] was over 100 µM and the TGI [45] was over 100 µM. It also gave a TGI [46] of over 100 µM, a TGI [47] of over 100 µM and a TGI [59] of over 100 µM. For the same molecule, the TGI [48] was over 100 µM.
